Measurements published in paper PMC10969504 (2024).

Test system: ENR-Apt 6 (DNA, aptamer) GCGGCTGCTTACGGATAGAAGGCGGATGGAGAAATGAACCGGGGTGGTCCGTTGTCCATCCGTAAAGCCCAAGTC
Experiment: graphene oxide fluorescence quenching/recovery, aptamer titrated
Conditions: aptamer 25-200 nM in ultrapure water; 20 μg/mL GO; 250 μM ENR solution added (1:1:1 v/v); apparent

Compound: CCN1CCN(c2cc3c(cc2F)c(=O)c(C(=O)O)cn3C2CC2)CC1
- Kd: 35.08 nM
